According to ChEMBL document CHEMBL2034816, “Synthesis and molecular modelling studies of novel carbapeptide analogs for inhibition of HIV-1 protease” (Eur J Med Chem, 2012):

Legend:
Protease [1] = molecular target: T1, Protease (Human immunodeficiency virus 1, UniProt Q9YQ12); assay: Inhibition of HIV1 protease
Protease [2] = molecular target: T1, Protease; assay: Inhibition of South African HIV1 subtype C protease expressed in Escherichia coli BL21S4 (DE3)pLysS cells using Lys-Ala-Arg-Val-Nle-p-nitro-Phe-Glu-Ala-Nle-NH2 as substrate by spectrophotometry
[3] = Ratio of compound IC50 to lopinavir IC50 for human MT4 cells after 5 days by XTT assay; format: ADME, cell-based; settings: read-out: Ratio IC50

T1 sequence (Q9YQ12 whole entry): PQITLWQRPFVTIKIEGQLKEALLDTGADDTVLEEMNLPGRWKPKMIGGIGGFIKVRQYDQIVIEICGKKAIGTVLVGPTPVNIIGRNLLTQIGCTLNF

Work on `CC(C)(C)OC(=O)N[C@@H](Cc1ccccc1)[C@@H](O)CC(C/C=C/c1ccccc1)C(=O)N[C@H](C(=O)NC[C@H]1OC(O)[C@H](O)[C@H]1O)C1CCCCC1` (stereo partly specified) yielded an IC50 (Protease [1]) of 0.00017 µM.

In the case of `CC(C)[C@H](NC(=O)C[C@@H](NCc1ccccc1)C1O[C@@H]2OC(C)(C)O[C@@H]2[C@H]1OCc1ccccc1)C(=O)N[C@@H](C)C(=O)O` (stereo partly specified), the IC50 (Protease [2]) is reported as 1090 nM and the selectivity ratio at 120 h [3] is reported as over 5000.

Work on `CC(C)[C@H](NC(=O)C[C@H](NCc1ccccc1)C1O[C@@H]2OC(C)(C)O[C@@H]2[C@H]1OCc1ccccc1)C(=O)N[C@@H](C)C(=O)O` (stereo partly specified) yielded an IC50 (Protease [2]) of 1290 nM and a selectivity ratio at 120 h [3] of over 5000.

`CC(C)[C@H](NC(=O)C[C@@H](N)C1O[C@@H]2OC(C)(C)O[C@@H]2[C@H]1O)C(=O)N[C@@H](C)C(=O)O` (stereo partly specified) gave an IC50 (Protease [2]) of 950 nM and a selectivity ratio at 120 h [3] of over 5000.

Compound `CC(C)[C@H](NC(=O)C[C@H](N)C1O[C@@H]2OC(C)(C)O[C@@H]2[C@H]1O)C(=O)N[C@@H](C)C(=O)O` (stereo partly specified) has an IC50 (Protease [2]) of 1010 nM and a selectivity ratio at 120 h [3] of over 5000.

With `CC(C)[C@H](NC(=O)[C@H](C)NC(=O)C[C@@H](NCc1ccccc1)C1O[C@@H]2OC(C)(C)O[C@@H]2[C@H]1OCc1ccccc1)C(=O)O` (stereo partly specified) the IC50 (Protease [2]) was 1020 nM and the selectivity ratio at 120 h [3] was over 5000.

`CC(C)[C@H](NC(=O)[C@H](C)NC(=O)C[C@H](NCc1ccccc1)C1O[C@@H]2OC(C)(C)O[C@@H]2[C@H]1OCc1ccccc1)C(=O)O` (stereo partly specified) gave an IC50 (Protease [2]) of 760 nM and a selectivity ratio at 120 h [3] of over 5000.

`CC(C)[C@H](NC(=O)[C@H](C)NC(=O)C[C@@H](N)C1O[C@@H]2OC(C)(C)O[C@@H]2[C@H]1O)C(=O)O` (stereo partly specified) gave an IC50 (Protease [2]) of over 10000 nM and a selectivity ratio at 120 h [3] of over 5000.

`CC(C)[C@H](NC(=O)[C@H](C)NC(=O)C[C@H](N)C1O[C@@H]2OC(C)(C)O[C@@H]2[C@H]1O)C(=O)O` (stereo partly specified) showed an IC50 (Protease [2]) of over 10000 nM and a selectivity ratio at 120 h [3] of over 5000.

For `CC(C)[C@H](NC(=O)[C@H](C)NC(=O)C[C@H](NCc1ccccc1)C1O[C@@H]2OC(C)(C)O[C@@H]2[C@H]1O)C(=O)O` (stereo partly specified), the IC50 (Protease [2]) was 710 nM and the selectivity ratio at 120 h [3] was over 5000.

For `O=C(N[C@@H]1Cc2ccccc2[C@@H]1O)C(OCc1ccccc1)[C@H](O)[C@@H](O)C(OCc1ccccc1)C(=O)N[C@@H]1Cc2ccccc2[C@@H]1O` (stereo partly specified), the Ki (Protease [1]) was 1.22 nM.

In the case of `COC(=O)[C@H](CC(C)C)NC(=O)[C@H](Cc1ccccc1)NC(=O)[C@@H]1O[C@@H](C(=O)N[C@@H](Cc2ccccc2)C(C)N[C@@H](CC(C)C)C(=O)OC)[C@@H](O)[C@@H]1O` (stereo partly specified), the IC50 (Protease [1]) is reported as over 2000 µM.
